Results from the supplement of paper PMC10307832.

Experiments:
Test in all cases: relative viability (nuclei count vs DMSO), 5 days (fraction); higher = more cells survive
Everolimus = compound: CO[C@H]1C[C@@H]2CC[C@@H](C)[C@@](O)(O2)C(=O)C(=O)N2CCCC[C@H]2C(=O)O[C@H]([C@H](C)C[C@@H]2CC[C@@H](OCCO)[C@H](OC)C2)CC(=O)[C@H](C)/C=C(\C)[C@@H](O)[C@@H](OC)C(=O)[C@H](C)C[C@H](C)/C=C/C=C/C=C/1C [Everolimus]
Procedure, shortened: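 Nuclei counted with MetaXpress define viability as the ratio of treated to vehicle wells, given as a median across plates. The lung cancer cell lines were in 1536-well plates, pinned with five √10-spaced library-drug doses and imaged at 4× after 5 days and Hoechst staining. Plates passed with control CV below 25% and at least one doubling.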

Everolimus + AZD7762 = compound: CO[C@H]1C[C@@H]2CC[C@@H](C)[C@@](O)(O2)C(=O)C(=O)N2CCCC[C@H]2C(=O)O[C@H]([C@H](C)C[C@@H]2CC[C@@H](OCCO)[C@H](OC)C2)CC(=O)[C@H](C)/C=C(\C)[C@@H](O)[C@@H](OC)C(=O)[C@H](C)C[C@H](C)/C=C/C=C/C=C/1C [Everolimus] + NC(=O)Nc1cc(-c2cccc(F)c2)sc1C(=O)N[C@H]1CCCNC1 [AZD7762] (partner 0.2 µM)
Procedure, shortened: (§1)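 Lung cancer cell lines in 1536-well plates were dosed by pin tool the day after seeding, either with one drug alone or with a fixed anchor-drug dose plus five library-drug doses (not always all listed) in √10 steps. After 5 days, cells were fixed and their nuclei stained in one step (final 0.05% Triton X-100, 1% formaldehyde, 1 ug/ml Hoechst), then counted on 4× images. Relative viability is the nuclei count in treated wells divided by that in vehicle wells. Values are medians of duplicate plates.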

Everolimus + Trametinib = compound: CO[C@H]1C[C@@H]2CC[C@@H](C)[C@@](O)(O2)C(=O)C(=O)N2CCCC[C@H]2C(=O)O[C@H]([C@H](C)C[C@@H]2CC[C@@H](OCCO)[C@H](OC)C2)CC(=O)[C@H](C)/C=C(\C)[C@@H](O)[C@@H](OC)C(=O)[C@H](C)C[C@H](C)/C=C/C=C/C=C/1C [Everolimus] + CC(=O)Nc1cccc(-n2c(=O)n(C3CC3)c(=O)c3c(Nc4ccc(I)cc4F)n(C)c(=O)c(C)c32)c1 [Trametinib] (partner 0.02 µM)
Procedure, shortened: as §1

Everolimus + Tozasertib = compound: CO[C@H]1C[C@@H]2CC[C@@H](C)[C@@](O)(O2)C(=O)C(=O)N2CCCC[C@H]2C(=O)O[C@H]([C@H](C)C[C@@H]2CC[C@@H](OCCO)[C@H](OC)C2)CC(=O)[C@H](C)/C=C(\C)[C@@H](O)[C@@H](OC)C(=O)[C@H](C)C[C@H](C)/C=C/C=C/C=C/1C [Everolimus] + Cc1cc(Nc2cc(N3CCN(C)CC3)nc(Sc3ccc(NC(=O)C4CC4)cc3)n2)n[nH]1 [Tozasertib] (partner 0.1 µM)
Procedure, shortened: as §1

Cell Line | relative viability (Everolimus; 0.01 µM) | relative viability (Everolimus; 0.03162 µM) | relative viability (Everolimus; 0.1 µM) | relative viability (Everolimus; 0.3162 µM) | relative viability (Everolimus; 1 µM) | relative viability (Everolimus + AZD7762; first compound 0.01 µM) | relative viability (Everolimus + AZD7762; first compound 0.03162 µM) | relative viability (Everolimus + AZD7762; first compound 0.1 µM) | relative viability (Everolimus + AZD7762; first compound 0.3162 µM) | relative viability (Everolimus + AZD7762; first compound 1 µM) | relative viability (Everolimus + Trametinib; first compound 0.01 µM) | relative viability (Everolimus + Trametinib; first compound 0.03162 µM) | relative viability (Everolimus + Trametinib; first compound 0.1 µM) | relative viability (Everolimus + Trametinib; first compound 0.3162 µM) | relative viability (Everolimus + Trametinib; first compound 1 µM) | relative viability (Everolimus + Tozasertib; first compound 0.01 µM) | relative viability (Everolimus + Tozasertib; first compound 0.03162 µM) | relative viability (Everolimus + Tozasertib; first compound 0.1 µM) | relative viability (Everolimus + Tozasertib; first compound 0.3162 µM) | relative viability (Everolimus + Tozasertib; first compound 1 µM)
H3255 | 0.735 | 0.664 | 0.543 | 0.528 | 0.495 | 0.74 | 0.562 | 0.595 | 0.632 | 0.509 | 0.414 | 0.391 | 0.351 | 0.433 | 0.403 | 0.597 | 0.55 | 0.412 | 0.462 | 0.402
EPLC-272H | 0.691 | 0.596 | 0.568 | 0.513 | 0.626 | 0.133 | 0.229 | 0.172 | 0.172 | 0.222 | 0.199 | 0.227 | 0.179 | 0.205 | 0.204 | 0.19 | 0.286 | 0.176 | 0.242 | 0.216
PC-3 [JPC-3] | 1.01 | 1.04 | 0.991 | 0.891 | 0.936 | 0.58 | 0.499 | 0.615 |  | 0.647 | 0.601 | 0.582 | 0.531 |  | 0.681 | 0.927 | 0.806 | 0.849 | 0.868 | 0.873
NCI-H1793 | 0.435 | 0.305 | 0.351 | 0.376 | 0.299 | 0.242 | 0.244 | 0.259 | 0.21 | 0.197 | 0.315 | 0.247 | 0.247 | 0.312 | 0.228 | 0.253 | 0.197 | 0.234 | 0.203 | 0.188
EKVX | 0.628 | 0.687 | 0.544 | 0.541 | 0.573 |  | 0.68 | 0.41 | 0.415 | 0.432 |  | 0.294 | 0.257 | 0.268 | 0.382 | 0.327 | 0.333 | 0.214 | 0.257 | 0.259
ChaGo-K-1 | 0.976 | 0.95 | 0.865 | 0.899 | 0.974 | 0.799 | 0.917 | 0.743 | 0.769 | 0.866 | 0.647 | 0.795 | 0.729 | 0.751 | 0.796 | 0.226 | 0.208 | 0.215 | 0.215 | 0.238
NCI-H23 | 0.639 | 0.516 | 0.468 | 0.583 | 0.55 | 0.144 | 0.185 | 0.218 | 0.219 | 0.175 | 0.248 | 0.204 | 0.218 | 0.252 | 0.216 | 0.396 | 0.295 | 0.299 | 0.358 | 0.217
EMC-BAC-2 | 0.689 | 0.606 | 0.55 | 0.473 | 0.565 | 0.846 | 0.761 | 0.645 | 0.653 | 0.692 | 0.502 | 0.605 | 0.536 |  | 0.503 | 0.289 | 0.296 | 0.244 | 0.258 | 0.266
LOU-NH91 | 0.823 | 0.799 | 0.798 | 0.789 | 0.773 | 0.651 | 0.654 | 0.621 | 0.645 | 0.647 | 0.626 | 0.695 | 0.667 | 0.612 | 0.623 | 0.637 | 0.608 | 0.63 | 0.609 | 0.656
LU99A | 0.557 | 0.644 | 0.626 | 0.591 | 0.679 | 0.213 | 0.279 | 0.213 | 0.246 | 0.33 | 0.35 | 0.268 | 0.298 | 0.314 | 0.354 | 0.23 | 0.282 | 0.252 | 0.222 | 0.263
NCI-H1395 | 0.765 | 0.627 | 0.683 | 0.647 | 0.727 | 0.394 | 0.374 | 0.335 | 0.405 | 0.339 | 0.724 | 0.641 | 0.657 | 0.694 | 0.652 | 0.56 | 0.56 | 0.493 | 0.523 | 0.507
NCI-H460 | 0.951 | 1.03 | 0.957 | 0.921 | 0.939 | 0.669 | 0.658 | 0.657 | 0.465 | 0.431 | 0.082 | 0.101 | 0.114 | 0.0573 | 0.124 | 0.719 | 0.698 | 0.603 | 0.538 | 0.569
201T | 0.9 | 0.893 | 0.842 | 0.855 | 0.878 | 0.466 | 0.476 | 0.407 | 0.421 | 0.47 | 0.658 | 0.632 | 0.586 | 0.595 | 0.57 | 0.898 | 0.913 | 0.801 | 0.843 | 0.906
NCI-H1944 | 0.636 | 0.687 | 0.575 | 0.789 | 0.626 | 0.341 | 0.437 | 0.354 | 0.325 | 0.306 | 0.311 | 0.303 | 0.341 | 0.312 | 0.298 | 0.215 | 0.236 | 0.205 | 0.224 | 0.185
